Where a name gives a salt, the structure may show the parent alone. Read-outs that look alike come from different tables or passages of the source.
Assays:
[1] = test system: HCV replicon in Huh7 cells; assay: HCV replicon cell-based assay (replicon FRET assay); design: species or system HCV strain 1B; settings: EC50 ranges
Source text: An HCV replicon whole cell system was established as described by Lohmann V, Korner F, Koch J, Herian U, Theilmann L, Bartenschlager R., Science 285 (5424):110-3 (1999). This system enabled us to evaluate the effects of our HCV Protease compounds on HCV RNA replication. Briefly, using the HCV strain 1B sequence described in the Lohmann paper (Assession number:AJ238799), an HCV cDNA was generated encoding the 5′ internal ribosome entry site (IRES), the neomycin resistance gene, the EMCV (encephalomyocarditis viurs)-IRES and the HCV nonstructural proteins, NS3-NS5B, and 3′ non-translated region (NTR). In vitro transcripts of the cDNA were transfected into the human hepatoma cell line, Huh7. […] Resulting cell lines were characterized for positive and negative strand RNA production and protein production over time.
Huh7 cells, constitutively expressing the HCV replicon, were grown in Dulbecco's Modified Eagle Media (DMEM) containing 10% Fetal calf serum (FCS) and 1 mg/ml G418 (Gibco-BRL). Cells were seeded the night before (1.5×10^4 cells/well) in 96-well tissue-culture sterile plates. Compound and no compound controls were prepared in DMEM containing 4% FCS, 1:100 Penicillin/Streptomysin, 1:100 L-glutamine and 5% DMSO in the dilution plate (0.5% DMSO final concentration in the assay). Compound/DMSO mixes were added to the cells and incubated for 4 days at 37° C. After 4 days, plates were rinsed thoroughly with Phosphate-Buffered Saline (PBS) (3 times 150 μl). The cells were lysed with 25 μl of a lysis assay reagent containing the FRET peptide (RET S1, as described for the in vitro enzyme assay). The lysis assay reagent was made from 5× cell Luciferase cell culture lysis reagent(Promega #E153A) diluted to 1× with distilled water, NaCl added to 150 mM final, the FRET peptide diluted to 10 μM final from a 2 mM stock in 100% DMSO. The plate was then placed into the Cytofluor 4000 instrument which had been set to 340 nm excitation/490 emission, automatic mode for 21 cycles and the plate read in a kinetic mode. EC50 determinations were carried out as described for the IC50 determinations.

[2] = molecular target: T1, HCV NS3/4A protease complex, BMS strain (genotype 1a) (Hepatitis C virus genotype 1a, UniProt P27958, C1454S/C1711G); assay: Recombinant HCV NS3/4A protease complex FRET peptide assay (BMS strain); assay type: biochemical; settings: IC50 ranges
T1 construct: recombinant HCV NS3/4A protease complex (amino'acids 1027 to 1711); inferred from the pET21b vector and Ni-NTA purification; made in house; host or cells: Escherichia coli BL21 (DE3), pET21b
T1 sequence (P27958 1027-1711 C1454S/C1711G, one chain of several): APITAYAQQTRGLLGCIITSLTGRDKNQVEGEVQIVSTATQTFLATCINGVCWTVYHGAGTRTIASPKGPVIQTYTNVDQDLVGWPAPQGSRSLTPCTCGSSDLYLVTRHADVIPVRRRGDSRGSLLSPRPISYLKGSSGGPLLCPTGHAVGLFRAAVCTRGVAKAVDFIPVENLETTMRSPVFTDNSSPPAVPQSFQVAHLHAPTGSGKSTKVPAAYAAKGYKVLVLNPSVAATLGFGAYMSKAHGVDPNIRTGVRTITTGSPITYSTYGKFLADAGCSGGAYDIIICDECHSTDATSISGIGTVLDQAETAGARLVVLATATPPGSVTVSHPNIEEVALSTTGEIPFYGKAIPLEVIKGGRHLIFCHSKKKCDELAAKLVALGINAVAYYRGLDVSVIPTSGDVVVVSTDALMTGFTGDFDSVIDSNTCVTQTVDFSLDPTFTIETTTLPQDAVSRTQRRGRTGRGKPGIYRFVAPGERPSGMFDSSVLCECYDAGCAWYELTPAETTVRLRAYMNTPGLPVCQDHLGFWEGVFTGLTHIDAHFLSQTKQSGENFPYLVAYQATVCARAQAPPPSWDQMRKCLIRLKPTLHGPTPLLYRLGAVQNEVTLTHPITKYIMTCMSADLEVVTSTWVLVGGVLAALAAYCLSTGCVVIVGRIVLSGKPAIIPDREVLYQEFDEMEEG
Source text: The purpose of this in vitro assay was to measure the inhibition of HCV NS3 protease complexes, derived from the BMS, H77C or J4L6S strains, as described below, by compounds of the present invention. This assay provides an indication of how effective compounds of the present invention would be in inhibiting HCV proteolytic activity.
Serum from an HCV-infected patient was obtained from Dr. T. Wright, San Francisco Hospital. An engineered full-length cDNA (compliment deoxyribonucleic acid) template of the HCV genome (BMS strain) was constructed from DNA fragments obtained by reverse transcription-PCR (RT-PCR) of serum RNA (ribonucleic acid) and using primers selected on the basis of homology between other genotype 1a strains. From the determination of the entire genome sequence, a genotype 1a was assigned to the HCV isolate according to the classification of Simmonds et al. (See P Simmonds, K A Rose, S Graham, S W Chan, F McOmish, B C Dow, E A Follett, P L Yap and H Marsden, J. Clin. Microbiol., 31 (6), 1493-1503 (1993)). […] The infectious clones, H77C (1a genotype) and J4L6S (1b genotype) were obtained from R. Purcell (N1H) and the sequences are published in Genbank (AAB67036, see Yanagi, M., Purcell, R. H., Emerson, S. U. and Bukh, J. Proc. Natl. Acad. Sci. U.S.A. 94 (16), 8738-8743 (1997); AF054247, see Yanagi, M., St Claire, M., Shapiro, M., Emerson, S. U., Purcell, R. H. and Bukh, J, Virology 244 (1), 161-172. (1998)).
The BMS, H77C and J4L6S strains were used for production of recombinant NS3/4A protease complexes. DNA encoding the recombinant HCV NS3/4A protease complex (amino'acids 1027 to 1711) for these strains were manipulated as described by P. Gallinari et al. (see Gallinari P, Paolini C, Brennan D, Nardi C, Steinkuhler C, De Francesco R. Biochemistry. 38 (17):5620-32, (1999)). Briefly, a three-lysine solubilizing tail was added at the 3′-end of the NS4A coding region. The cysteine in the P1 position of the NS4A-NS4B cleavage site (amino acid 1711) was changed to a glycine to avoid the proteolytic cleavage of the lysine tag. Furthermore, a cysteine to serine mutation was introduced by PCR at amino acid position 1454 to prevent the autolytic cleavage in the NS3 helicase domain. The variant DNA fragment was cloned in the pET21b bacterial expression vector (Novagen)and the NS3/4A complex was expressed in Escherichia. coli strain BL21 (DE3) (Invitrogen) following the protocol described by P. Gallinari et al. (see Gallinari P, Brennan D, Nardi C, Brunetti M, Tomei L, Steinkuhler C, De Francesco R., J. Virol. 72 (8):6758-69 (1998)) with modifications. Briefly, NS3/4A expression was induced with 0.5 mM Isopropyl β-D-1-thiogalactopyranoside (IPTG) for 22 hr at 20° C. A typical fermentation (10L) yielded approximately 80 g of wet cell paste. The cells were resuspended in lysis buffer (10 mL/g) consisting of 25 mM N-(2-Hydroxyethyl)Piperazine-N′-(2-Ethane Sulfonic acid) (HEPES), pH 7.5, 20% glycerol, 500 mM Sodium Chloride (NaCl), 0.5% Triton-X100, 1 ug/ml lysozyme, 5 mM Magnesium Chloride (MgCl2), 1 ug/ml Dnasel, 5 mM β-Mercaptoethanol (OME), Protease inhibitor-Ethylenediamine Tetraacetic acid (EDTA) free (Roche), homogenized and incubated for 20 mins at 4° C. The homogenate was sonicated and clarified by ultra-centrifugation at 235000 g for 1 hr at 4° C. Imidazole was added to the supernatant to a final concentration of 15 mM and the pH adjusted to 8.0. The crude protein extract was loaded on a Nickel-Nitrilotriacetic acid (Ni-NTA) column pre-equilibrated with buffer B (25 mM HEPES, pH 8.0, 20% glycerol, 500 mM NaCl, 0.5% Triton-X100, 15 mM imidazole, 5 mM βME). The sample was loaded at a flow rate of 1 mL/min. The column was washed with 15 column volumes of buffer C (same as buffer B except with 0.2% Triton-X100). The protein was eluted with 5 column volumes of buffer D (same as buffer C except with 200 mM Imidazole). […]

[3] = Hepatitis C virus, Huh-7, HCV replicon cell assay
[4] = IC50, HCV NS3/4A protease FRET assay in vitro

| Structure (SMILES) | EC50 ([1]; HCV replicon cell assay, read-out: EC50) [nM] | IC50 ([2]; HCV NS3/4A protease FRET assay in vitro, read-out: IC50) [nM] | EC50 [1, 3] [nM] | IC50 [2, 4] [nM] |
| --- | --- | --- | --- | --- |
| COc1ccc2c(O[C@@H]3C[C@H]4C(=O)N[C@]5(C(=O)NS(=O)(=O)C6CC6)C[C@H]5/C=C\CCCCC[C@H](NC(=O)OC(C)(C)C)C(=O)N4C3)cc(-c3ccccc3)nc2c1 (relative stereo) [Compound 11, (1S,4R,6S,13S,18R)-7-cis-[4-Cyclopropanesulfonyl-aminocarbonyl-18-(7-methoxy-2-phenylquinolin-4-yloxy)-2,15-dioxo-3,16-diazatricyclo-[14.3.0.0^4,6]nona-dec-7-en-14-yl]carbamic acid tert-butyl ester] | < 50 | < 50 | – | – |
| COc1ccc2c(O[C@@H]3C[C@H]4C(=O)N[C@]5(C(=O)NS(=O)(=O)C6CC6)C[C@H]5/C=C/CC[C@H](NC(=O)OC(C)(C)C)C(=O)N4C3)cc(-c3ccccc3)nc2c1 [Compound 1, (1S,4R,6S,11S,15R)-7-trans-[4-Cyclopropanesulfonyl-amino-carbonyl-15-(7-methoxy-2-phenylquinolin-4-yloxy)-2,12-dioxo-3,13-diazatricyclo[11.3.0.0^4,6]hexa-dec-7-en-11-yl]carbamic acid tert-butyl ester] | – | – | < 50000 | < 5000 |
| COc1ccc2c(O[C@@H]3C[C@H]4C(=O)N[C@]5(C(=O)NS(=O)(=O)C6CC6)CC5/C=C/CC[C@H](N)C(=O)N4C3)cc(-c3ccccc3)nc2c1 (stereo partly drawn) [Compound 2, (1S 4R,6S,11S,15R)-7-trans-Cyclopropanesulfonic acid [11-amino-15-(7-methoxy-2-phenylquinolin-4-yloxy)-2,12-dioxo-3,13-diazatricyclo-[11.3.0.0^4,6]hexadec-7-ene-4-carbonyl]amide dihydrochloride] | – | – | – | < 5000 |
| COc1ccc2c(O[C@@H]3C[C@H]4C(=O)N[C@]5(C(=O)NS(=O)(=O)C6CC6)CC5/C=C/CCC[C@H](NC(=O)OC(C)(C)C)C(=O)N4C3)cc(-c3ccccc3)nc2c1 (stereo partly drawn) [Compound 3, (1S,4R,6S,12S,16R)-7-trans-[4-Cyclopropanesulfonyl-aminocarbonyl-16-(7-methoxy-2-phenylquinolin-4-yloxy)-2,13-dioxo-3,14-diazatricyclo[12.3.0.0^4,6]heptadec-7-en-12-yl]carbamic acid tert-butyl ester] | – | – | < 50000 | < 5000 |
| COc1ccc2c(O[C@@H]3C[C@H]4C(=O)N[C@]5(C(=O)NS(=O)(=O)C6CC6)CC5/C=C/CCC[C@H](N)C(=O)N4C3)cc(-c3ccccc3)nc2c1 (stereo partly drawn) [Compound 4, (1S,4R,6S,12S,16R)-7-trans-Cyclopropanesulfonic acid [12-amino-16-(7-methoxy-2-phenylquinolin-4-yloxy)-2,13-dioxo-3,14-diazatricyclo [12.3.0.0^4,6]heptadec-7-ene-4-carbonyl]amide dihydrochloride] | – | – | – | < 50000 |
| COc1ccc2c(O[C@@H]3C[C@H]4C(=O)N[C@]5(C(=O)NS(=O)(=O)C6CC6)CC5/C=C/CCCC[C@H](NC(=O)OC(C)(C)C)C(=O)N4C3)cc(-c3ccccc3)nc2c1 (stereo partly drawn) [Compound 5, (1S,4R,6S,13S,17R)-7-trans-[4-Cyclopropanesul-fonylamino-carbonyl-17-(7-methoxy-2-phenylquinolin-4-yloxy)-2,14-dioxo-3,15-diazatricyclo[13.3.0.0^4,6]octa-dec-7-en-13-yl]carbamic acid tert-butyl ester] | – | – | < 50 | < 50 |
| COc1ccc2c(O[C@@H]3C[C@H]4C(=O)N[C@]5(C(=O)NS(=O)(=O)C6CC6)CC5/C=C\CCCC[C@H](NC(=O)OC(C)(C)C)C(=O)N4C3)cc(-c3ccccc3)nc2c1 (stereo partly drawn) [Compound 7, (1S,4R,65,13S,17R)-7-cis-[4-Cyclopropanesulfonylamino-carbonyl-17-(7-methoxy-2-phenylquinolin-4-yloxy)-2,14-dioxo-3,15-diazatricyclo[13.3.0.0^4,6]octadec-7-en-13-yl]carbamic acid tert-butyl ester] | – | – | < 50 | < 50 |
| COc1ccc2c(O[C@@H]3C[C@H]4C(=O)N[C@]5(C(=O)NS(=O)(=O)C6CC6)CC5/C=C\CCCC[C@H](N)C(=O)N4C3)cc(-c3ccccc3)nc2c1 (stereo partly drawn) [Compound 8, (1S,4R,6S,13S,17R)-7-cis-Cyclopropanesulfonic acid [13-amino-17-(7-methoxy-2-phenylquinolin-4-yloxy)-2,14-dioxo-3,15-diazatricyclo[13.3.0.0^4,6]octadec-7-ene-4-carbonyl]amide dihydrochloride] | – | – | < 500 | < 50 |
| COc1ccc2c(O[C@@H]3C[C@H]4C(=O)N[C@]5(C(=O)NS(=O)(=O)C6CC6)C[C@H]5/C=C\CCCCC[C@H](NC(=O)OC(C)(C)C)C(=O)N4C3)cc(-c3ccccc3)nc2c1 [Compound 9, (1S,4R,6S,14S,18R)-7-cis-[4-Cyclopropanesulfonylamino-carbonyl-18-(7-methoxy-2-phenylquinolin-4-yloxy)-2,15-dioxo-3,16-diazatricyclo[14.3.0.0^4,6]nonadec-7-en-14-yl]carbamic acid tert-butyl ester] | – | – | < 50 | < 50 |
| COc1ccc2c(O[C@@H]3C[C@H]4C(=O)N[C@]5(C(=O)NS(=O)(=O)C6CC6)CC5/C=C\CCCCC[C@H](N)C(=O)N4C3)cc(-c3ccccc3)nc2c1 (stereo partly drawn) [Compound 10, (1S,4R,6S,14S,18R)-7-cis-Cyclopropane-sulfonic acid [14-amino-18-(7-methoxy-2-phenylquinol-in-4-yloxy)-2,15-dioxo-3,16-diazatricyclo[14.3.0.0^4,6]-nonadec-7-ene-4-carbonyl]amide dihydrochloride] | – | – | < 50 | < 50 |

Source: patent US6867185B2 (Bristol-Myers Squibb Company, priority 2001, dated 2005)
